The supplement of paper PMC10307832

Columns and labels:
Assay in all cases: relative viability (nuclei count vs DMSO), 5 days (fraction); higher = more cells survive
[1] = system: NCI-H1915
How it was run: (§1)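 Medians of duplicate plates are given as relative viability. That measure is the nuclei count in treated wells divided by the count in vehicle wells. Counts were taken on 4× images of lung cancer cell lines in 1536-well plates, 5 days after pin-tool dosing the day after seeding with one drug alone or a fixed anchor-drug dose plus five library-drug doses (not always all listed) in √10 steps.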

[2] = system: NCI-H441
How it was run: as §1

[3] = system: NCI-H2170
How it was run: as §1

[4] = system: LCLC-97TM1
How it was run: as §1

[5] = system: NCI-H2405
How it was run: as §1

[6] = system: A-427
How it was run: as §1

[7] = system: LXF-289
How it was run: as §1

[8] = system: NCI-H838
How it was run: as §1

[9] = system: HARA
How it was run: as §1

[10] = system: NCI-H520
How it was run: as §1

[11] = system: HCC-366
How it was run: as §1

[12] = system: NCI-H1993
How it was run: as §1

[13] = system: PC-14
How it was run: as §1

[14] = system: NCI-H1975
How it was run: as §1

[15] = system: HCC-44
How it was run: as §1

[16] = system: RERF-LC-KJ
How it was run: as §1

[17] = system: NCI-H2347
How it was run: as §1

[18] = system: H3255
How it was run: as §1

[19] = system: NCI-H1395
How it was run: as §1

[20] = system: NCI-H1755
How it was run: as §1

[21] = system: SK-MES-1
How it was run: as §1

[22] = system: NCI-H3122
How it was run: as §1

Oc1nc(-c2ccc(C(F)(F)F)cc2)nc2c1CSCC2 [XAV939] + Nc1ncn([C@H]2C[C@H](O)[C@@H](CO)O2)c(=O)n1 [Decitabine] (partner 2 µM)
relative viability ([1]; first compound 0.08 µM): 0.253
relative viability ([1]; first compound 0.253 µM): 0.25
relative viability ([1]; first compound 0.8 µM): 0.265
relative viability ([1]; first compound 2.53 µM): 0.268
relative viability ([2]; first compound 0.08 µM): 0.25
relative viability ([2]; first compound 0.253 µM): 0.253
relative viability ([2]; first compound 0.8 µM): 0.232
relative viability ([2]; first compound 2.53 µM): 0.251
relative viability ([3]; first compound 0.08 µM): 0.472
relative viability ([3]; first compound 0.253 µM): 0.484
relative viability ([3]; first compound 0.8 µM): 0.455
relative viability ([3]; first compound 2.53 µM): 0.385
relative viability ([4]; first compound 0.08 µM): 0.211
relative viability ([4]; first compound 0.253 µM): 0.245
relative viability ([4]; first compound 2.53 µM): 0.21
relative viability ([5]; first compound 0.08 µM): 0.776
relative viability ([5]; first compound 0.253 µM): 0.721
relative viability ([5]; first compound 0.8 µM): 0.709
relative viability ([5]; first compound 2.53 µM): 0.689
relative viability ([6]; first compound 0.08 µM): 0.627
relative viability ([6]; first compound 0.253 µM): 0.606
relative viability ([6]; first compound 0.8 µM): 0.527
relative viability ([6]; first compound 2.53 µM): 0.518
relative viability ([7]; first compound 0.08 µM): 0.388
relative viability ([7]; first compound 0.253 µM): 0.38
relative viability ([7]; first compound 0.8 µM): 0.416
relative viability ([7]; first compound 2.53 µM): 0.345
relative viability ([8]; first compound 0.08 µM): 0.488
relative viability ([8]; first compound 0.253 µM): 0.442
relative viability ([8]; first compound 0.8 µM): 0.458
relative viability ([8]; first compound 2.53 µM): 0.384
relative viability ([9]; first compound 0.08 µM): 0.552
relative viability ([9]; first compound 0.253 µM): 0.51
relative viability ([9]; first compound 0.8 µM): 0.626
relative viability ([9]; first compound 2.53 µM): 0.379
relative viability ([10]; first compound 0.08 µM): 0.54
relative viability ([10]; first compound 0.8 µM): 0.457
relative viability ([10]; first compound 2.53 µM): 0.495
relative viability ([11]; first compound 0.08 µM): 0.329
relative viability ([11]; first compound 0.253 µM): 0.299
relative viability ([11]; first compound 0.8 µM): 0.326
relative viability ([11]; first compound 2.53 µM): 0.31
relative viability ([12]; first compound 0.08 µM): 0.527
relative viability ([12]; first compound 0.253 µM): 0.224
relative viability ([12]; first compound 0.8 µM): 0.567
relative viability ([12]; first compound 2.53 µM): 0.467
relative viability ([13]; first compound 0.08 µM): 0.203
relative viability ([13]; first compound 0.253 µM): 0.224
relative viability ([13]; first compound 0.8 µM): 0.165
relative viability ([13]; first compound 2.53 µM): 0.18
relative viability ([14]; first compound 0.08 µM): 0.382
relative viability ([14]; first compound 0.253 µM): 0.357
relative viability ([14]; first compound 0.8 µM): 0.379
relative viability ([14]; first compound 2.53 µM): 0.354
relative viability ([15]; first compound 0.08 µM): 0.969
relative viability ([15]; first compound 0.253 µM): 0.861
relative viability ([15]; first compound 0.8 µM): 0.928
relative viability ([15]; first compound 2.53 µM): 0.878
relative viability ([16]; first compound 0.08 µM): 0.717
relative viability ([16]; first compound 0.253 µM): 0.657
relative viability ([16]; first compound 0.8 µM): 0.583
relative viability ([16]; first compound 2.53 µM): 0.552
relative viability ([17]; first compound 0.08 µM): 0.62
relative viability ([17]; first compound 0.253 µM): 0.586
relative viability ([17]; first compound 0.8 µM): 0.607
relative viability ([17]; first compound 2.53 µM): 0.517
relative viability ([18]; first compound 0.08 µM): 0.637
relative viability ([18]; first compound 0.253 µM): 0.56
relative viability ([18]; first compound 0.8 µM): 0.576
relative viability ([18]; first compound 2.53 µM): 0.386
relative viability ([19]; first compound 0.08 µM): 0.77
relative viability ([19]; first compound 0.253 µM): 0.683
relative viability ([19]; first compound 0.8 µM): 0.795
relative viability ([19]; first compound 2.53 µM): 0.688
relative viability ([20]; first compound 0.08 µM): 0.693
relative viability ([20]; first compound 0.253 µM): 0.677
relative viability ([20]; first compound 0.8 µM): 0.72
relative viability ([20]; first compound 2.53 µM): 0.691
relative viability ([21]; first compound 0.08 µM): 0.359
relative viability ([21]; first compound 0.253 µM): 0.342
relative viability ([21]; first compound 0.8 µM): 0.358
relative viability ([21]; first compound 2.53 µM): 0.381
relative viability ([22]; first compound 0.08 µM): 0.572
relative viability ([22]; first compound 0.253 µM): 0.401
relative viability ([22]; first compound 0.8 µM): 0.51
relative viability ([22]; first compound 2.53 µM): 0.394
